In this experiment the test system is nerve-derived transglutaminase (TGN) purified from regenerating fish optic nerve, Carp (Cyprinus carpio), 55 kDa. The procedure:
The incorporation of radioactive putrescine to a carrier protein is an assay characteristic of enzymes of the transglutaminase family. Any carrier protein that has lysine residues may be used in the assay, such as casein, bovine serum albumin, etc.
In this example, activity characteristic of the nerve-derived transglutaminase was measured by incorporation of [^14C)putrescine into N,N-dimethylcasein (Chakrabarty et al., 1987). The purified TGN enzyme eluted from the TG-Ab affinity column with glycine in Example 3 was dialyzed for 2 hours in the presence of N,N-dimethylcasein (1 mg/ml), before being added to the reaction mixture. The reaction was initiated by addition of […] TGN ([…]), followed by incubation for 20 min at 37°C and terminated by the addition of ice-cold trichloroacetic acid (TCA; final concentration, 5%).
The enzyme activity was titrated with respect to temperature and pH and substrate concentration. […] Titration was carried out by measuring incorporation of [^14C]putrescine to caseine in the presence of TGN.

Structures are written as SMILES. Read-outs that look alike come from different tables or passages of the source.

With `NCCCCN` [putrescine], the Km is, setting by setting: (incorporation of [^14C]putrescine to caseine in the presence of TGN, calculated from titration of activity as a function of substrate concentration, 20 min at 37°C) 0.55 µM; (read-out: Km in the incorporation of putrescine, calculated as a function of substrate, list of TGN characteristics, unit inferred) 0.55 µM.
